In ChEMBL document CHEMBL1201862, “PubChem BioAssay data set” (2004):
Calls of active or inactive are those of the source.

Experiments:
[1] = target: Mitogen-activated protein kinase 10 (Homo sapiens, UniProt P53779); assay: Dose response biochemical screening assay for inhibitors of c-Jun N-Terminal Kinase 3 (JNK3). [Related pubchem assays: 746 ]
[2] = target: T1, Protein Tat (Human immunodeficiency virus type 1 group M subtype B (isolate HXB2)(HIV-1), UniProt P04608); format: functional;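 note: tat binding to TAR RNA read out by fluorescence polarization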
T1 sequence (P04608 whole entry): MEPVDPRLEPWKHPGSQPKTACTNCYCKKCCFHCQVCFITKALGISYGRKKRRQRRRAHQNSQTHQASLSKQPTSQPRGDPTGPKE

[3] = target: T2, Tyrosine-protein phosphatase non-receptor type 7 (Homo sapiens, UniProt P35236); assay: inhibitors of human HePTP phosphatase, […], biochemical, absorbance, leukemia target (AID 521); format: functional
T2 sequence (P35236 whole entry): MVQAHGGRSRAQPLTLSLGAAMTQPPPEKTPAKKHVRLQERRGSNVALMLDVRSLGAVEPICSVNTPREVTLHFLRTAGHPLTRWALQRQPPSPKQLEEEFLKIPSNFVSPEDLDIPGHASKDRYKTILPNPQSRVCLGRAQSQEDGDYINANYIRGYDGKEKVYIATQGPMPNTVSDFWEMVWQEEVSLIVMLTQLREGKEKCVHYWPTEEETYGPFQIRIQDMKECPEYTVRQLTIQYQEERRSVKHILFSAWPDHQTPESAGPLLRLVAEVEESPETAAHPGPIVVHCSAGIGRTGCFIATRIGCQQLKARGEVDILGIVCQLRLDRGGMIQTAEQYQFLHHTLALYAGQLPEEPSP

[4] = target: T3, Bcl-2-related protein A1 (Mus musculus, UniProt Q07440); assay: Bfl-1 inhibitors blocking BH3 peptide binding, confirmation, biochemical, TR-FRET, mouse Bfl-1 (AID 621);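 note: TR-FRET binding of GST-Bfl-1 to FITC-labelled Bid peptide via terbium antibody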
T3 sequence (Q07440 whole entry): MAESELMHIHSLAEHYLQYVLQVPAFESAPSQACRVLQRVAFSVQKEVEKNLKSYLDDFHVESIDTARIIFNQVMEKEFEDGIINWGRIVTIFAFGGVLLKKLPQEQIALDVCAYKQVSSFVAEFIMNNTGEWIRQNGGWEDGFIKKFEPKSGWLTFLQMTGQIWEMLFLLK

[5] = target: T3, Bcl-2-related protein A1; assay: Bfl-1 binding inhibitors, SAR follow-up, biochemical, fluorescence polarization (AID 1070)
[6] = target: Glyceraldehyde-3-phosphate dehydrogenase (Homo sapiens, UniProt P04406)
[7] = target: T4, RNA-editing ligase 1, mitochondrial (Trypanosoma brucei brucei, UniProt P86926); assay: TbREL1 ligase inhibitors, dose response, biochemical, fluorescence, Trypanosoma brucei (AID 1117295); format: functional
T4 sequence (P86926 whole entry): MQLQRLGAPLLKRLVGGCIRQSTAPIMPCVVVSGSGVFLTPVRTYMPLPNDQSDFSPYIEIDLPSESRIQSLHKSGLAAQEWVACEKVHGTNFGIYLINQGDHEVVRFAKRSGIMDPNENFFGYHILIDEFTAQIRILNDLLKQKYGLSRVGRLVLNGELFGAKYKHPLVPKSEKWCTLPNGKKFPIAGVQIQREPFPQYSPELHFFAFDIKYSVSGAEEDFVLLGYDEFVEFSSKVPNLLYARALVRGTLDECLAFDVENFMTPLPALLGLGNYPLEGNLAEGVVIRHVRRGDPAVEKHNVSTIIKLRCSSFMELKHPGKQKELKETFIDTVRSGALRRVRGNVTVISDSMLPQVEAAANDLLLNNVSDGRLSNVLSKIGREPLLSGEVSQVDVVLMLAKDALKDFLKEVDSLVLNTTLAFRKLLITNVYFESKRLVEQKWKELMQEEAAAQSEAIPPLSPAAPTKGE

[8] = target: T5, Microphthalmia-associated transcription factor (Homo sapiens, UniProt O75030); assay: TRPM1 promoter luciferase signal decrease, dose response, MITF inhibitor project, cell-based, SK-MEL-5, cherry-picked, set 3 (AID 493073); format: functional
T5 sequence (O75030 whole entry): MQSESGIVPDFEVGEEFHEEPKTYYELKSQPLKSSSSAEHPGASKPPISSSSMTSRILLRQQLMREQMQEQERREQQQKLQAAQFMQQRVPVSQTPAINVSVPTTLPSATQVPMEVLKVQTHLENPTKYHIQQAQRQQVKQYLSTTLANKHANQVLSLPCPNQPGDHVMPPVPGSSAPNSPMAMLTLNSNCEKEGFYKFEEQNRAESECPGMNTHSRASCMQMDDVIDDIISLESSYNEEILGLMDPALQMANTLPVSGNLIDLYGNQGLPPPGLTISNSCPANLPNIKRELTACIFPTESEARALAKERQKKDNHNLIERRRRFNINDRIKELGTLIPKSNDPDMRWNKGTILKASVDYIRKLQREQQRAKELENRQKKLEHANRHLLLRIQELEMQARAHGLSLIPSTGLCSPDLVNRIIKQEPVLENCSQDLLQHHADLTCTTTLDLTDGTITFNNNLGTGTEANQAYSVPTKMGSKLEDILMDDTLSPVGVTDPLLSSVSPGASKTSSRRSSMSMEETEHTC

[9] = Luminescence-based cell-based high throughput dose response assay to identify activators of the DAF-12 from the parasite S. stercoralis (ssDAF-12).; format: functional
[10] = target: T6, Oxysterols receptor LXR-beta (Homo sapiens, UniProt P55055); assay: LXR agonists, Gal4 luciferase reporter, dose response, counter-screen for ssDAF-12 agonist project, cell-based, luminescence, HEK293, S. stercoralis campaign (AID 720737); format: functional; conditions: read-out: IC50 (the source's name)
T6 sequence (P55055 whole entry): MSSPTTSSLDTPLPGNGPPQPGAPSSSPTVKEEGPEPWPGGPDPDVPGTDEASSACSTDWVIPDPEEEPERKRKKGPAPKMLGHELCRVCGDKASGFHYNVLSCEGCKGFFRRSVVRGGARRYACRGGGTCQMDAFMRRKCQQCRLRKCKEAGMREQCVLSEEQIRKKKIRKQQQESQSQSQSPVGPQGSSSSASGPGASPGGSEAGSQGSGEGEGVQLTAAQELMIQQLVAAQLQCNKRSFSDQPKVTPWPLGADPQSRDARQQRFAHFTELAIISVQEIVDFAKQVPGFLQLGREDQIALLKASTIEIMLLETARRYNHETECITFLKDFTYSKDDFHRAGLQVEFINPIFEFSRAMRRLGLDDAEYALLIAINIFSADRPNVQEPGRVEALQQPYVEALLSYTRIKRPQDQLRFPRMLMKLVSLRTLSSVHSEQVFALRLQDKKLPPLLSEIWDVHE

[11] = NIH-3T3 fibroblast cytotoxicity, dose response, cytotoxicity control, cell-based, fluorescence, Alamar Blue, secondary assay (AID 2327); format: functional;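 note: NIH-3T3 mouse fibroblasts cultured with fluconazole at 8 µg/mL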
[12] = C. albicans growth with fluconazole, confirmation, fluorescence, retest (AID 2467); format: functional, cell-based
[13] = target: T7, Mannose-6-phosphate isomerase (Homo sapiens, UniProt P34949); assay: human PMI inhibitors, high substrate, primary screen, biochemical, fluorescence intensity, high mannose 6-phosphate (AID 1220)
T7 sequence (P34949 whole entry): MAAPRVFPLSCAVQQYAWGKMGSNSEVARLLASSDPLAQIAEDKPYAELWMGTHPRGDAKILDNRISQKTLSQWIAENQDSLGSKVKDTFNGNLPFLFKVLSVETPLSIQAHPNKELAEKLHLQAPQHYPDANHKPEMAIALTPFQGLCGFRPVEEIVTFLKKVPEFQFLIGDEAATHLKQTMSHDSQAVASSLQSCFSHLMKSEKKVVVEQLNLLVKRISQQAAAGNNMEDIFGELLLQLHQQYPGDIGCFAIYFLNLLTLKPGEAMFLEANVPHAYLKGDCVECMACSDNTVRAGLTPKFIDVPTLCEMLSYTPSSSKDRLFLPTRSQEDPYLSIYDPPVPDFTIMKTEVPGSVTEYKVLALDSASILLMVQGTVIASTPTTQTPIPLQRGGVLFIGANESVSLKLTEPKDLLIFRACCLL

[14] = cells; format: functional, cell-based
[15] = target: T8, Trace amine-associated receptor 1 (Homo sapiens, UniProt Q96RJ0); assay: Counterscreen for agonists of the human trace amine associated receptor 1 (hTAAR1): Fluorescence-based cell-based high throughput dose response assay to identify hTAAR1 agonist that also desensitize TAAR1 receptor response.; format: functional
T8 sequence (Q96RJ0 whole entry): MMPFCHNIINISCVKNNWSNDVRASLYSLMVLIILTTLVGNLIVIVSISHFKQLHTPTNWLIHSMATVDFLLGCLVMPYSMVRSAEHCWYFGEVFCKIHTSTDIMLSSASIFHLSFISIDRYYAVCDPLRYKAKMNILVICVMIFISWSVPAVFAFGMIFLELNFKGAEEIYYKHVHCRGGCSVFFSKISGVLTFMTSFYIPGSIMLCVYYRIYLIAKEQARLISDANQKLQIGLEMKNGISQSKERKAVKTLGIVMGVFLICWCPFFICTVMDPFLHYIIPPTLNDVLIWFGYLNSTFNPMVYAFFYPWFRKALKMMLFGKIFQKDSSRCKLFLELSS

[16] = cells; format: functional, cell-based; remark: listed apart in the source
[17] = target: T8, Trace amine-associated receptor 1; assay: Fluorescence-based cell-based high throughput dose response assay to identify agonists of the human trace amine associated receptor 1 (TAAR1).; format: functional
[18] = growth suppression of beta-catenin-knockout colon cells, dose response, cell-based, HCT116, human colon tumor (AID 1045); format: functional;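 note: HCT116 colon tumor cells with beta catenin knocked out; cells exposed to compound for 60 hours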
[19] = growth suppression of PTEN-null colon cells, dose response, cell-based, HCT116 PTEN knockout (AID 1047); format: functional;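 note: HCT116 colon tumor cells with PTEN knocked out; cells exposed to compound for 60 hours before readout; potency for loss of cell viability measured by luminescence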
[20] = target: Paired box protein Pax-8 (Homo sapiens, UniProt Q06710); assay: inhibitors of PAX8-driven TPO luciferase reporter, dose response, RMG-I cells, cherry-pick (AID 687027); format: functional, cell-based;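 note: luciferase reporter driven by Pax8 target thyroperoxidase promoter measured by SteadyGlo luminescence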
[21] = NIH:OVCAR-3 ovarian cancer cell cytotoxicity, dose response, PAX8 inhibitor project, plate reader, dry powder samples (AID 743044); format: functional, cell-based
[22] = cytotoxicity in OVCAR8 ovarian cancer cells, dose response, PAX8 project, cell-based, plate reader, dry powder samples (AID 743197); format: functional; conditions: OVCAR-8
[23] = P. falciparum Dd2 growth inhibitors, dose response, SYBR Green, cherry-picked samples (AID 1159567); format: functional, cell-based
[24] = P. falciparum ATP4 D1247Y mutant growth inhibitors, dose response, NITD609-resistant line, SYBR Green, dry powder (AID 1159571); format: functional, cell-based;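 note: parasites synchronized at ring stage by sorbitol before testing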
[25] = P. falciparum 3D7-ScDHODH growth inhibitors, dose response, SYBR Green, dry powder samples (AID 1159570); format: functional, cell-based;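 note: parasite growth measured after 72 hours of compound exposure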
[26] = P. falciparum Dd2 growth inhibitors, dose response, SYBR Green, dry powder samples (AID 1159566); format: functional, cell-based;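 note: potency for growth inhibition with lower SYBR green DNA signal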

Sequence of Glyceraldehyde-3-phosphate dehydrogenase (P04406 whole entry): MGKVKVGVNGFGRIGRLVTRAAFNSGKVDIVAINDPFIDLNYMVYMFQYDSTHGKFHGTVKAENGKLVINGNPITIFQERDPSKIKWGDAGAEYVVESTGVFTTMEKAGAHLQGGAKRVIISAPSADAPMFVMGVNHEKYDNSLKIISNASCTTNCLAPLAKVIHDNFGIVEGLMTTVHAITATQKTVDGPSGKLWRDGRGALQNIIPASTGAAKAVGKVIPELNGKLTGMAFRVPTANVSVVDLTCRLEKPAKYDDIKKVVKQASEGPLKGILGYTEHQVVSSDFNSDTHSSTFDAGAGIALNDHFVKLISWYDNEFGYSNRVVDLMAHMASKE
Sequence of Paired box protein Pax-8 (Q06710 whole entry): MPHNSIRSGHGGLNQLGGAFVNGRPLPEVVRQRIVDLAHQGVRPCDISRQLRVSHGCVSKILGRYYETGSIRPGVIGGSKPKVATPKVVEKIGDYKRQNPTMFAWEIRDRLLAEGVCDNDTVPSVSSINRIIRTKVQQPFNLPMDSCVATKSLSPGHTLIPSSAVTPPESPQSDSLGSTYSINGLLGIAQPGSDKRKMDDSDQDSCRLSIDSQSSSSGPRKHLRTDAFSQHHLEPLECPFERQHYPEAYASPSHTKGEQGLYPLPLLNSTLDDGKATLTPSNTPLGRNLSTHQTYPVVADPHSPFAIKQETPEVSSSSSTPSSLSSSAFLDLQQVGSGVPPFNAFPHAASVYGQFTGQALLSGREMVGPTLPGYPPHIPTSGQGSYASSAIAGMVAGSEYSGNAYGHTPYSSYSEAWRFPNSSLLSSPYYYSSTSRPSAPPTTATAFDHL
Sequence of Mitogen-activated protein kinase 10 (P53779 whole entry): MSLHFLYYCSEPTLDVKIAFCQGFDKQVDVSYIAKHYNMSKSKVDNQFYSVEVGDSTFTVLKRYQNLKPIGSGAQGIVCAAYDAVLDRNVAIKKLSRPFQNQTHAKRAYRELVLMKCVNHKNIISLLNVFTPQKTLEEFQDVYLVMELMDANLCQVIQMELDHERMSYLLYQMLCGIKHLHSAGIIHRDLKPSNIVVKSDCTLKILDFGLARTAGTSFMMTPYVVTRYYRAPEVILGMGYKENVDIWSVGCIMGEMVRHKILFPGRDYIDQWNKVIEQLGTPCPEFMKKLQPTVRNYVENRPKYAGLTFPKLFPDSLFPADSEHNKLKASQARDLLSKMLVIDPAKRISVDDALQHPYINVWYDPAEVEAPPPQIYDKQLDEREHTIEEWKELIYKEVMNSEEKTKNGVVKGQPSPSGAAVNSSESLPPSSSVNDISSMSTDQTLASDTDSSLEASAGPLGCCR

NC(=O)c1c(NC(=O)Cc2cccs2)sc2c1CCC2
IC50 [1]: 28.3 µM (not active) | IC50 [2]: > 100 µM (active)

CN(Cc1nc(-c2cccnc2)no1)S(=O)(=O)c1ccc(Br)cc1
IC50 [3]: > 100 µM (not active)

O=C1C(Cl)=C(Cl)C(=O)N1c1ccc(Cl)nc1
IC50 [4]: 33.8 µM (active) | IC50 [5]: > 100 µM (not active) | IC50 [6]: > 100 µM (not active)

CC1CCN(C2CC(=O)N(c3ccc(Cl)c(Cl)c3)C2=O)CC1 (stereo not given)
IC50 [4]: > 100 µM (not active) | IC50 [5]: > 100 µM (not active) | IC50 [6]: > 100 µM (not active)

COc1ccc2nc(C)cc(NCc3cccc(C(F)(F)F)c3)c2c1
IC50 [7]: > 96.6 µM (inactive) | AC50 [8]: 18.2 µM (active)

Cn1cnc(NCc2ccccc2)c1[N+](=O)[O-]
IC50 [9]: > 67.5 µM (inactive) | EC50 [10]: > 67.5 µM (inactive)

Cc1n[nH]c(C)c1S(=O)(=O)N1CCCC(C(=O)Nc2ccc3c(c2)OCCO3)C1 (stereo not given)
IC50 [3]: > 100 µM (not active)

Cc1cccc(NC(S)=NNC(=O)c2cc3c(s2)CCC(C)C3)c1C (stereo not given)
IC50 [9]: > 67.5 µM (inactive) | EC50 [11]: > 150 µM (inactive) | EC50 [12]: > 38 µM (not active) | EC50 [10]: > 67.5 µM (inactive)

O=C1C(Cl)=C(N2CCN(c3ccccc3Cl)CC2)C(=O)N1c1ccc(Cl)c(Cl)c1
IC50 [4]: > 100 µM (not active) | IC50 [5]: > 100 µM (not active) | IC50 [6]: > 100 µM (not active)

CC1CCCN(C(=S)SCC(=O)c2cc(Br)cc(Br)c2O)C1 (stereo not given)
IC50 [13]: > 50 µM (not active) | EC50 [14]: > 29.9 µM (inactive) | IC50 [15]: 4.68 µM (active) | IC50 [16]: > 29.9 µM (inactive) | EC50 [17]: 0.732 µM (active)

Cc1ccc2nc(-c3ccc(NC(=O)COC(=O)c4ccc(Br)o4)cc3)sc2c1
IC50 [9]: > 67.5 µM (inactive) | EC50 [18]: 79.7 µM (active) | EC50 [19]: 37.3 µM (active) | EC50 [10]: > 67.5 µM (inactive)

O=P(O)(CN1CCCCCC1)CN1CCCCCC1
IC50 [2]: > 100 µM (active)

C[C@@H]1CCCCO[C@@H](CN(C)Cc2ccc(C(F)(F)F)cc2)[C@H](C)CN([C@@H](C)CO)C(=O)c2cc(NC(=O)Nc3ccc(F)cc3)ccc2O1
AC50 [20]: 3.37 µM (active) | AC50 [21]: 45.7 µM (active)

Cc1ccc(S(=O)(=O)Nc2ccc3c(c2)C(=O)N([C@H](C)CO)C[C@@H](C)[C@H](CN(C)Cc2ccc(Cl)c(Cl)c2)OCCCC[C@H](C)O3)cc1
AC50 [20]: 6.2 µM (active) | AC50 [21]: 25.4 µM (active) | AC50 [22]: 37.8 µM (active)

C[C@@H]1CN([C@H](C)CO)C(=O)c2cc(NC(=O)Nc3ccc(C(F)(F)F)cc3)ccc2O[C@H]1CN(C)C(=O)Nc1cccc2ccccc12
AC50 [23]: 1.68 µM (active) | AC50 [24]: 2 µM (active) | AC50 [25]: 1.43 µM (active) | AC50 [26]: 1.99 µM (active)

O=C(c1ccncc1)N1CC(=O)N2[C@H](C1)[C@@H](c1ccc(-c3cccnc3)cc1)[C@@H]2CO
AC50 [23]: < 0.3 µM (active) | AC50 [24]: 0.161 µM (active) | AC50 [25]: 0.188 µM (active) | AC50 [26]: 0.112 µM (active)

CN1CCC(N[C@@H](Cc2ccccc2)C(=O)NCC(c2ccccc2)c2ccccc2)(C(=O)NC2CCCCC2)CC1
IC50 [7]: > 96.6 µM (inactive)
